Values of other authors, collected in patent EP0496548A1, “Carbacyclin analogs” (PURDUE RESEARCH FOUNDATION, priority 1991, dated 1992).

Details: in vivo

| SMILES | serum half-life (attributed to enzymatic oxidation) | half-life ('generally') [min] |
| --- | --- | --- |
| CCCCC[C@H](O)/C=C/[C@@H]1[C@H]2C/C(=C/CCCC(=O)O)C[C@H]2C[C@H]1O [carbacyclin] | comparable to that of prostacyclin |  |
| CCCCC[C@H](O)/C=C/[C@@H]1[C@H]2C/C(=C/CCCC(=O)O)O[C@H]2C[C@H]1O [prostacyclin, Prostacyclin] |  | 2 to 3 |
